Tested on: 5-HT1B receptor
Assay: PET measurements in monkeys (radioligand brain uptake and 5-HT1B receptor binding)
Format: in vivo, Cynomolgus monkey
Description: Cynomolgus monkey can be used to determine the suitability of [^11C] labeled raidoligands as a radioligand for PET-determination of 5HT^1B-receptor binding and occupancy. Anaesthesia can be induced and maintained by repeated intramuscular injections of a mixture of ketamine (3-4 mg/kg per h Ketalar, Parke-Davis) and xylazine hydrochloride (1-2 mg/kg per h Rompun® Vet., Bayer, Sweden) for the duration of each measurement. A fixation device can be used for the positioning of the monkey head during the PET-measurements. Body temperature can be controlled by Bair Hugger—Model 505 (Arizant Healthcare Inc, MN).
Radioactivity in the brain can be measured with the Siemens ECAT Exact HR47 system that can be used in the three-dimensional model. The system covers an axial distance of 15 cm. The transaxial resolution of the reconstructed images is about 3.8 mm full width at half-maximum (FWHM) and the axial resolution 4.0 mm FWHM. […]
In each PET-measurement a sterile physiological phosphate buffer (pH=7.4) solution containing about 1.4 mCi (50 MBq) of [^11C] labeled compound can be injected as a bolus into a sural vein during 2 s with simultaneous start of PET-data acquisition. Radioactivity in brain can be measured continuously for 93 minutes according to a pre-programmed series of 15 frames starting immediately after IV injection of [^11C] labeled compound. […]
During all PET measurements venous blood samples (about 0.5 ml) can be taken at 4 time points (at about 4, 15, 30 and 45 minutes) and plasma radioactivity concentration determined in a well counter, cross-calibrated with the camera. […]
The ROIs can be drawn on the PET summation images representing radioactivity measured from 9 minutes after intravenous injection to the end of the measurement. […] Radioactivity is calculated for the sequence of time frames, corrected for the radioactivity decay, and plotted versus time. For each region a time-activity curve can be generated and radioactivity expressed as nCi/ml. […]

For “[^11C] 8-(4-methylpiperazin-1-yl)-5-methylchrom-2-en-4-one-2-(4-morpholinophenyl)carboxamide) [Example 3]”, the “specific binding to the areas of interest” value (primate brain PET, non specific defined as cerebellum) was “binds specifically to the areas of interest”, the “specific to non-specific ratios” value (primate brain PET, ratio of ROI to cerebellum (non specific defined as cerebellum)) was “high enough specific to non-specific ratios” and the “entry of radioligand into brain” value (primate brain, PET, IV bolus of [11C] labeled compound) was “rapidly entered the primate brain”.

Reference: patent US20090004106A1, “Radioligands for the 5 -Ht1b Receptor” (priority 2006, published 2009)
